Earlier results in paper PMC3437650 (Bioorganic & medicinal chemistry letters, 2008).

Test system: BBB choline transporter
Settings: ref 11b

## N,N’-(1,12-dodecandiyl)-bis-pyridinium dibromide [bPiDDB]
  share of permeation into brain that uses the BBB choline transporter: ~ 90%
